ChEMBL document CHEMBL3259753, “Synthesis, structure-activity relationships and biological evaluation of dehydroandrographolide and andrographolide derivatives as novel anti-hepatitis B virus agents” (Bioorg Med Chem Lett, 2014)

Assays:
[1] = Cytotoxicity against human HepG2.2.15 cells by MTT assay; assay type: cell-based, HepG2 2.2.15
[2] = Selectivity index, ratio of CC50 for human HepG2.2.15 cells to IC50 for HBV infected in human HepG2.2.15 cells assessed as inhibition of DNA replication; assay type: functional
[3] = system: Hepatitis B virus; test: Antiviral activity against HBV infected in human HepG2.2.15 cells assessed as inhibition of DNA replication; assay type: functional, organism-based; conditions: HepG2 2.2.15
[4] = Selectivity index, ratio of CC50 for human HepG2.2.15 cells to IC50 for HBV infected in human HepG2.2.15 cells assessed as inhibition of hepatitis B surface antigen secretion; assay type: functional
[5] = system: Hepatitis B virus; test: Antiviral activity against HBV infected in human HepG2.2.15 cells assessed as inhibition of hepatitis B surface antigen secretion by ELISA; assay type: functional, organism-based; conditions: HepG2 2.2.15
[6] = system: Hepatitis B virus; test: Antiviral activity against HBV infected in human HepG2.2.15 cells assessed as inhibition of hepatitis B e antigen secretion by ELISA; assay type: functional, organism-based; conditions: HepG2 2.2.15
[7] = Selectivity index, ratio of CC50 for human HepG2.2.15 cells to IC50 for HBV infected in human HepG2.2.15 cells assessed as inhibition of hepatitis B e antigen secretion; assay type: functional

## C=C1CC[C@@H]2[C@](C)(CO)[C@H](O)CC[C@@]2(C)[C@@H]1C/C=C(/C(=O)O)[C@H](O)CO
[1]
  CC50: 182 µM
[2]
  Ratio CC50/IC50: 7.8
[3]
  IC50: 23.2 µM

## C[C@]1(CO)[C@H]2CC[C@@]3(CO3)[C@@H](/C=C/C3=CCOC3=O)[C@]2(C)CC[C@H]1O
[4]
  Ratio CC50/IC50: 1.4
[1]
  CC50: 1840 µM
[2]
  Ratio CC50/IC50: 23.6
[5]
  IC50: 1290 µM
[3]
  IC50: 78 µM

## C=C1CC[C@@H]2[C@](C)(COC(=O)c3cccnc3)[C@H](OC(=O)c3cccnc3)CC[C@@]2(C)[C@@H]1/C=C/C1=CCOC1=O
[1]
  CC50: > 1920 µM
[6]
  IC50: > 1920 µM
[5]
  IC50: > 1920 µM
[3]
  IC50: > 664 µM

## C=C1CC[C@H]2[C@@](C)(CCC(=O)[C@@]2(C)C=O)[C@@H]1C/C=C1/C(=O)OC[C@H]1O
[1]
  CC50: 155 µM
[6]
  IC50: 815 µM
[2]
  Ratio CC50/IC50: 3
[5]
  IC50: 951 µM
[3]
  IC50: 51.3 µM

## C=C1CC[C@@H]2[C@](C)(COC(=O)/C=C/c3cccc(OC)c3)[C@H](O)CC[C@@]2(C)[C@@H]1/C=C/C1=CCOC1=O
[1]
  CC50: > 1970 µM
[6]
  IC50: 1480 µM
[5]
  IC50: > 1970 µM
[3]
  IC50: > 513 µM

## C=C1CC[C@@H]2[C@](C)(COC(=O)/C=C/c3cccc(Cl)c3)[C@H](O)CC[C@@]2(C)[C@@H]1/C=C/C1=CCOC1=O
[7]
  Ratio CC50/IC50: 2.5
[1]
  CC50: 147 µM
[6]
  IC50: 59.8 µM
[5]
  IC50: 207 µM
[3]
  IC50: 136 µM

## C=C1CC[C@@H]2[C@](C)(COC(=O)c3cccnc3OC)[C@H](O)CC[C@@]2(C)[C@@H]1/C=C/C1=CCOC1=O
[7]
  Ratio CC50/IC50: 6.2
[1]
  CC50: 1340 µM
[6]
  IC50: 217 µM
[5]
  IC50: > 2310 µM
[3]
  IC50: > 584 µM

## C=C1CC[C@@H]2[C@](C)(COC(=O)c3cc(=O)c4ccccc4o3)[C@H](O)CC[C@@]2(C)[C@@H]1/C=C/C1=CCOC1=O
[7]
  Ratio CC50/IC50: 1
[1]
  CC50: 171 µM
[6]
  IC50: 177 µM
[2]
  Ratio CC50/IC50: 4.7
[3]
  IC50: 36.6 µM

## C=C1CC[C@@H]2[C@](C)(COC(C)=O)[C@H](O)CC[C@@]2(C)[C@@H]1/C=C/C1=CCOC1=O
[1]
  CC50: 225 µM
[6]
  IC50: 2230 µM
[2]
  Ratio CC50/IC50: 3.2
[5]
  IC50: 565 µM
[3]
  IC50: 69.5 µM

## C=C1CC[C@@H]2[C@](C)(COC(=O)c3ccco3)[C@H](OC(=O)c3ccco3)CC[C@@]2(C)[C@@H]1/C=C/C1=CCOC1=O
[1]
  CC50: 1110 µM
[6]
  IC50: 1860 µM
[2]
  Ratio CC50/IC50: 4.6
[5]
  IC50: 1410 µM
[3]
  IC50: 242 µM

## C=C1CC[C@@H]2[C@](C)(COC(C)=O)[C@H](OC(C)=O)CC[C@@]2(C)[C@@H]1/C=C/C1=CCOC1=O
[1]
  CC50: 757 µM
[6]
  IC50: 1390 µM
[5]
  IC50: 1010 µM
[3]
  IC50: 455 µM

## C=C1CC[C@@H]2[C@](C)(COC(=O)CCCC(=O)O)[C@H](OC(=O)CCCC(=O)O)CC[C@@]2(C)[C@@H]1/C=C/C1=CCOC1=O
[1]
  CC50: > 1710 µM
[6]
  IC50: > 1710 µM
[5]
  IC50: > 1710 µM
[3]
  IC50: > 429 µM

## C=C1CC[C@@H]2[C@](C)(COC(=O)COCC(=O)O)[C@H](OC(=O)COCC(=O)O)CC[C@@]2(C)[C@@H]1/C=C/C1=CCOC1=O
[1]
  CC50: > 1930 µM
[6]
  IC50: > 1930 µM
[5]
  IC50: > 1930 µM
[3]
  IC50: > 483 µM

## C=C1CC[C@@H]2[C@](C)(COC(=O)c3ccccc3C(=O)O)[C@H](OC(=O)c3ccccc3C(=O)O)CC[C@@]2(C)[C@@H]1/C=C/C1=CCOC1=O
[1]
  CC50: > 1620 µM
[2]
  Ratio CC50/IC50: >15.6
[3]
  IC50: 104 µM

## C=C1CC[C@@H]2[C@](C)(COC(=O)/C=C/c3ccccc3)[C@H](O)CC[C@@]2(C)[C@@H]1C/C=C1\C=COC1=O
[1]
  CC50: 271 µM
[6]
  IC50: 516 µM
[2]
  Ratio CC50/IC50: 5.8
[5]
  IC50: 210 µM
[3]
  IC50: 46.6 µM

## C=C1CC[C@@H]2[C@](C)(COC(=O)/C=C/c3cc(OC)c(OC)c(OC)c3)[C@H](O)CC[C@@]2(C)[C@@H]1C/C=C1\C=COC1=O
[1]
  CC50: 325 µM
[2]
  Ratio CC50/IC50: 14.6
[3]
  IC50: 22.3 µM

## C=C1CC[C@@H]2[C@](C)(COC(=O)c3cccnc3)[C@H](O)CC[C@@]2(C)[C@@H]1C/C=C1\C=COC1=O
[1]
  CC50: 2050 µM
[6]
  IC50: > 974 µM
[2]
  Ratio CC50/IC50: 126
[5]
  IC50: > 1140 µM
[3]
  IC50: 16.3 µM

## C=C1CC[C@@H]2[C@](C)(COC(=O)c3ccco3)[C@H](O)CC[C@@]2(C)[C@@H]1C/C=C1\C=COC1=O
[1]
  CC50: > 2150 µM
[6]
  IC50: > 949 µM
[2]
  Ratio CC50/IC50: >100.5
[3]
  IC50: 21.4 µM

## C=C1CC[C@@H]2[C@](C)(COC(=O)c3ccccc3)[C@H](O)CC[C@@]2(C)[C@@H]1C/C=C1\C=COC1=O
[1]
  CC50: 82 µM
[6]
  IC50: 123 µM
[2]
  Ratio CC50/IC50: 4
[5]
  IC50: 880 µM
[3]
  IC50: 20.6 µM
